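In this assay, cells in 96-well plates receive the compound at five concentrations for 48 hours. Endpoints are linearly interpolated between the surrounding concentrations. GI50 marks 50% less growth. TGI denotes the concentration required for complete inhibition of growth.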
How the values were obtained:
Test in all cases: NCI tumour cell line growth inhibition, 48 h
NCI-H23 lung = test system: NCI-H23 lung
A498 renal = test system: A498 renal
SK-MEL-28 melanoma = test system: SK-MEL-28 melanoma
HS 578T breast = test system: HS 578T breast
HOP-62 NSCLC = test system: HOP-62 NSCLC
786-0 renal = test system: 786-0 renal
SW-620 colon = test system: SW-620 colon
CCRF-CEM leukemia = test system: CCRF-CEM leukemia
SN12C renal = test system: SN12C renal
NCI/ADR-RES ovarian = test system: NCI/ADR-RES ovarian
COLO 205 colon = test system: COLO 205 colon
OVCAR-3 ovarian = test system: OVCAR-3 ovarian
HCC-2998 colon = test system: HCC-2998 colon
SF-295 CNS = test system: SF-295 CNS
HT29 colon = test system: HT29 colon
OVCAR-4 ovarian = test system: OVCAR-4 ovarian
HCT-15 colon = test system: HCT-15 colon
MDA-MB-231 breast = test system: MDA-MB-231 breast
T-47D breast = test system: T-47D breast
BT-549 breast = test system: BT-549 breast
IGROV1 ovarian = test system: IGROV1 ovarian
SF-539 CNS = test system: SF-539 CNS
LOX IMVI melanoma = test system: LOX IMVI melanoma
OVCAR-8 ovarian = test system: OVCAR-8 ovarian
SNB-75 CNS = test system: SNB-75 CNS
U251 CNS = test system: U251 CNS
K-562 leukemia = test system: K-562 leukemia
MDA-MB-435 = test system: MDA-MB-435
KM12 colon = test system: KM12 colon
SR leukemia = test system: SR leukemia
A549 NSCLC = test system: A549 NSCLC
MOLT-4 leukemia = test system: MOLT-4 leukemia
RXF 393 renal = test system: RXF 393 renal
DU-145 prostate = test system: DU-145 prostate
UO-31 renal = test system: UO-31 renal
SNB-19 CNS = test system: SNB-19 CNS
TK-10 renal = test system: TK-10 renal
UACC-257 melanoma = test system: UACC-257 melanoma
NCI-H460 lung = test system: NCI-H460 lung
HL-60(TB) leukemia = test system: HL-60(TB) leukemia
RPMI-8226 leukemia = test system: RPMI-8226 leukemia
MALME-3M melanoma = test system: MALME-3M melanoma
HCT-116 colon = test system: HCT-116 colon
MCF7 breast = test system: MCF7 breast
CAKI-1 renal = test system: CAKI-1 renal
SK-OV-3 ovarian = test system: SK-OV-3 ovarian
OVCAR-5 ovarian = test system: OVCAR-5 ovarian
UACC-62 melanoma = test system: UACC-62 melanoma
HOP-92 NSCLC = test system: HOP-92 NSCLC
PC-3 prostate = test system: PC-3 prostate
NCI-H522 lung = test system: NCI-H522 lung
EKVX NSCLC = test system: EKVX NSCLC
ACHN renal = test system: ACHN renal
SK-MEL-5 melanoma = test system: SK-MEL-5 melanoma
SK-MEL-2 melanoma = test system: SK-MEL-2 melanoma
NCI-H226 lung = test system: NCI-H226 lung
SF-268 CNS = test system: SF-268 CNS

COc1cc(-c2cc(-c3cccs3)c(C#N)c(N3CCOCC3)n2)cc(OC)c1OC
GI50 (NCI-H23 lung): > 52.1 µM | TGI (NCI-H23 lung): > 100 µM | GI50 (A498 renal): 2430 nM | TGI (A498 renal): > 43.1 µM | GI50 (SK-MEL-28 melanoma): 3.83 µM | TGI (SK-MEL-28 melanoma): 97.2 µM | GI50 (HS 578T breast): 7.27 µM | TGI (HS 578T breast): > 100 µM | GI50 (HOP-62 NSCLC): > 58.7 µM | TGI (HOP-62 NSCLC): > 100 µM | GI50 (786-0 renal): 1820 nM | TGI (786-0 renal): 7.94 µM | GI50 (SW-620 colon): 1950 nM | TGI (SW-620 colon): 4.62 µM | GI50 (CCRF-CEM leukemia): 5.66 µM | TGI (CCRF-CEM leukemia): > 100 µM | GI50 (SN12C renal): > 100 µM | TGI (SN12C renal): > 100 µM | GI50 (NCI/ADR-RES ovarian): 5.08 µM | TGI (NCI/ADR-RES ovarian): > 100 µM | GI50 (COLO 205 colon): 2300 nM | TGI (COLO 205 colon): 6.62 µM | GI50 (OVCAR-3 ovarian): 14.9 µM | TGI (OVCAR-3 ovarian): > 88.9 µM | GI50 (HCC-2998 colon): 21.7 µM | TGI (HCC-2998 colon): > 100 µM | GI50 (SF-295 CNS): 2870 nM | TGI (SF-295 CNS): 9.01 µM | GI50 (HT29 colon): 3.16 µM | TGI (HT29 colon): > 100 µM | GI50 (OVCAR-4 ovarian): > 44.6 µM | TGI (OVCAR-4 ovarian): > 100 µM | GI50 (HCT-15 colon): 3.09 µM | TGI (HCT-15 colon): > 100 µM | GI50 (MDA-MB-231 breast): 5.83 µM | TGI (MDA-MB-231 breast): > 100 µM | GI50 (T-47D breast): 3.32 µM | TGI (T-47D breast): > 85.3 µM | GI50 (BT-549 breast): 8.22 µM | TGI (BT-549 breast): > 100 µM | GI50 (IGROV1 ovarian): 13.7 µM | TGI (IGROV1 ovarian): > 100 µM | GI50 (SF-539 CNS): 5.06 µM | TGI (SF-539 CNS): > 100 µM | GI50 (LOX IMVI melanoma): 12 µM | TGI (LOX IMVI melanoma): > 100 µM | GI50 (OVCAR-8 ovarian): > 30.4 µM | TGI (OVCAR-8 ovarian): > 100 µM | GI50 (SNB-75 CNS): 10 µM | TGI (SNB-75 CNS): > 63 µM | GI50 (U251 CNS): 4.94 µM | TGI (U251 CNS): > 100 µM | GI50 (K-562 leukemia): 3.8 µM | TGI (K-562 leukemia): > 100 µM | GI50 (MDA-MB-435): > 47.9 µM | TGI (MDA-MB-435): > 100 µM | GI50 (KM12 colon): 6.02 µM | TGI (KM12 colon): > 100 µM | GI50 (SR leukemia): 1930 nM | TGI (SR leukemia): 8.11 µM | GI50 (A549 NSCLC): 44.1 µM | TGI (A549 NSCLC): > 100 µM | GI50 (MOLT-4 leukemia): 4.09 µM | TGI (MOLT-4 leukemia): > 100 µM | GI50 (RXF 393 renal): 3.47 µM | TGI (RXF 393 renal): > 62.8 µM | GI50 (DU-145 prostate): 13.7 µM | TGI (DU-145 prostate): > 100 µM | GI50 (UO-31 renal): 5.12 µM | TGI (UO-31 renal): > 100 µM | GI50 (SNB-19 CNS): > 76.1 µM | TGI (SNB-19 CNS): > 100 µM | GI50 (TK-10 renal): > 39 µM | TGI (TK-10 renal): > 94.1 µM | GI50 (UACC-257 melanoma): 3.22 µM | TGI (UACC-257 melanoma): 9.9 µM | GI50 (NCI-H460 lung): 3.06 µM | TGI (NCI-H460 lung): > 28.5 µM | GI50 (HL-60(TB) leukemia): 3.12 µM | TGI (HL-60(TB) leukemia): 29.7 µM | GI50 (RPMI-8226 leukemia): 4.07 µM | TGI (RPMI-8226 leukemia): > 85.7 µM | GI50 (MALME-3M melanoma): 3.66 µM | TGI (MALME-3M melanoma): > 100 µM | GI50 (HCT-116 colon): 4.14 µM | TGI (HCT-116 colon): > 100 µM | GI50 (MCF7 breast): 6.68 µM | TGI (MCF7 breast): > 100 µM | GI50 (CAKI-1 renal): > 21.6 µM | TGI (CAKI-1 renal): > 100 µM | GI50 (SK-OV-3 ovarian): > 50.3 µM | TGI (SK-OV-3 ovarian): > 100 µM | GI50 (OVCAR-5 ovarian): > 100 µM | TGI (OVCAR-5 ovarian): > 100 µM | GI50 (UACC-62 melanoma): 7.57 µM | TGI (UACC-62 melanoma): > 100 µM | GI50 (HOP-92 NSCLC): 4.73 µM | TGI (HOP-92 NSCLC): > 100 µM | GI50 (PC-3 prostate): 5.29 µM | TGI (PC-3 prostate): > 100 µM | GI50 (NCI-H522 lung): 10.3 µM | TGI (NCI-H522 lung): > 100 µM | GI50 (EKVX NSCLC): 24.2 µM | TGI (EKVX NSCLC): > 100 µM | GI50 (ACHN renal): 6.45 µM | TGI (ACHN renal): > 100 µM | GI50 (SK-MEL-5 melanoma): 5.71 µM | TGI (SK-MEL-5 melanoma): > 100 µM | GI50 (SK-MEL-2 melanoma): 8.46 µM | TGI (SK-MEL-2 melanoma): > 100 µM | GI50 (NCI-H226 lung): 20.5 µM | TGI (NCI-H226 lung): > 100 µM | GI50 (SF-268 CNS): > 67.6 µM | TGI (SF-268 CNS): > 100 µM
